Source: ChEMBL document CHEMBL1153238, “Spirodiketopiperazine-based CCR5 antagonists: Improvement of their pharmacokinetic profiles” (Bioorg Med Chem Lett, 2010)
One block for each molecule: values may come before it.

Experiments:
Rattus norvegicus [1] = test: AUC (0 to infinity) in rat at 30 mg/kg, iv; type: ADME, organism-based, Plasma; design: time infinity, dose 30 mg/kg, route intravenous; conditions: in vivo
Rattus norvegicus [2] = test: Bioavailability in rat at 30 mg/kg, po administered as single dose; type: ADME, organism-based; conditions: in vivo
[3] = Cmax in rat at 30 mg/kg, po administered as single dose; type: ADME, organism-based; design: dose 30 mg/kg, route oral; conditions: in vivo
Rattus norvegicus [4] = test: Half life in rat at 30 mg/kg, po administered as single dose; type: ADME, organism-based; design: dose 30 mg/kg, route oral; conditions: in vivo
[5] = Solubility of the compound; type: physicochemical
Rattus norvegicus [6] = test: AUC (0 to infinity) in rat at 30 mg/kg, po administered as single dose; type: ADME, organism-based, Plasma; design: time infinity, dose 30 mg/kg, route oral; conditions: in vivo
Rattus norvegicus [7] = test: Half life in rat at 30 mg/kg, iv; type: ADME, organism-based; design: dose 30 mg/kg, route intravenous; conditions: in vivo
Liver microsomes = test: Metabolic stability in rat liver microsomes assessed as compound remaining after 15 mins; type: ADME, Microsome; conditions: 0.25 h
[8] = target: C-C chemokine receptor type 5 (Homo sapiens, UniProt P51681); test: Antagonist activity at human CCR5 receptor overexpressed in CHO cells assessed as inhibition of MIP-1-alpha-induced calcium mobilization; type: functional, cell-based
Chain of C-C chemokine receptor type 5 (P51681 whole entry): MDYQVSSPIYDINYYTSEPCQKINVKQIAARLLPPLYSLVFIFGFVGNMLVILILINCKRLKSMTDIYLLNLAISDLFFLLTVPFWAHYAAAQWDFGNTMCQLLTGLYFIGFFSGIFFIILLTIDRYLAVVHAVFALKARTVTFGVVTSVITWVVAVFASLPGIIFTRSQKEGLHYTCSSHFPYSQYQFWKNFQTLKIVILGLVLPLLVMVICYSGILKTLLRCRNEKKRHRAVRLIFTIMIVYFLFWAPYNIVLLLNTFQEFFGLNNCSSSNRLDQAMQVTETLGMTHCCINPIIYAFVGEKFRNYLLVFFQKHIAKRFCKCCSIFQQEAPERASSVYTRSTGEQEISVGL

[9] = system: Human immunodeficiency virus 1; test: Antiviral activity against HIV1 Ba-L(R5) infected in human PBMC by p24 antigen capture assay; conditions: Human immunodeficiency virus 1, Ba-L(R5)

AUC (Rattus norvegicus [1]): 400 ng·h/mL
F (Rattus norvegicus [2]): 1.9%
Cmax [3]: 16.7 ng/mL
t1/2 (Rattus norvegicus [4]): 1.72 h
solubility [5]: < 5 µM
AUC (Rattus norvegicus [6]): 74.4 ng·h/mL
t1/2 (Rattus norvegicus [7]): 0.332 h
Stability (Liver microsomes): 33%
SMILES: CCCCN1C(=O)C(CC2CCCCC2)NC(=O)C12CCN(Cc1ccc(Oc3ccccc3)cc1)CC2.Cl (racemic)

IC50 [8]: 180 nM
SMILES: CCCCN1C(=O)C(CC(C)C)NC(=O)C12CCN(Cc1ccc3c(c1)OCCO3)CC2 (racemic)

SMILES: Cc1c(O)cccc1C(=O)N[C@@H](CSc1ccccc1)[C@H](O)CN1C[C@H]2CCCC[C@H]2C[C@H]1C(=O)NC(C)(C)C
IC50 [9]: 12 nM
